According to ChEMBL document CHEMBL3352004, “(7-Benzyloxy-2,3-dihydro-1H-pyrrolo[1,2-a]indol-1-yl)acetic Acids as S1P1 Functional Antagonists” (ACS Med Chem Lett, 2014):

Target: T1, Sphingosine 1-phosphate receptor 1 (Homo sapiens, UniProt P21453)
T1 sequence (P21453 whole entry): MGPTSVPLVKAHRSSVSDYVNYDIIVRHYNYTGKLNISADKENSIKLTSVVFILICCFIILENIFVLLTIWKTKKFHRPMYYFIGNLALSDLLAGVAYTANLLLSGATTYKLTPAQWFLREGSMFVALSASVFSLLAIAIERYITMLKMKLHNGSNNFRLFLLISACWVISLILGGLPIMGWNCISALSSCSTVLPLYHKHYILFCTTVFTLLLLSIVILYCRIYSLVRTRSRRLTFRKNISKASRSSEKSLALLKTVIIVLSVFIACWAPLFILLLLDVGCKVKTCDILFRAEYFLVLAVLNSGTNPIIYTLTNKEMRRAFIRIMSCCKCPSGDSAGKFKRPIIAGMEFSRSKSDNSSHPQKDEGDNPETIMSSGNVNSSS
Assay: Agonist activity at human S1P1 receptor assessed as cAMP accumulation by HTRF assay relative to S1P
Assay type: functional
Conditions: not given
For `O=C(O)CC1CCn2c1cc1cc(OCc3ccc(C4CCCC4)c(C(F)(F)F)c3)ccc12` (stereo in doubt; 12b), the Emax was 100%.
Molecule `O=C(O)CC1CCn2c1cc1cc(OCc3ccc(C4CCCC4)c(C(F)(F)F)c3)ccc12` (stereo in doubt; 12a) has an Emax of 97%.
With `CC(C)Oc1ccc(COc2ccc3c(c2)cc2n3CCC2CC(=O)O)cc1C#N` (racemic) the Emax was 105%.
`CC(C)Oc1ccc(COc2ccc3c(c2)cc2n3CCC2CC(=O)O)cc1C(F)(F)F` (racemic) gave an Emax of 112%.
Work on `CC(C)Oc1ccc(COc2ccc3c(c2)cc2n3CCC2CC(=O)O)cc1C#N` (stereo in doubt; 19b) yielded an Emax of 104%.
With `O=C(O)CC1CCn2c1cc1cc(OCc3ccc(C4CCCC4)c(C(F)(F)F)c3)ccc12` (racemic) the Emax was 108%.

Target: T1, Sphingosine 1-phosphate receptor 1
Assay: Agonist activity at human S1P1 receptor by beta-arrestin recruitment assay relative to S1P
Conditions: not given
`O=C(O)CC1CCn2c1cc1cc(OCc3ccc(C4CCCC4)c(C(F)(F)F)c3)ccc12` (stereo in doubt; 12b) gave an Emax of 100%.
`O=C(O)CC1CCn2c1cc1cc(OCc3ccc(C4CCCC4)c(C(F)(F)F)c3)ccc12` (stereo in doubt; 12a) gave an Emax of 105%.
In the case of `CC(C)Oc1ccc(COc2ccc3c(c2)cc2n3CCC2CC(=O)O)cc1C#N` (stereo in doubt; 19b), the Emax is reported as 122%.

Target: T2, Sphingosine 1-phosphate receptor 4 (Homo sapiens) (UniProt O95977)
T2 sequence (whole entry): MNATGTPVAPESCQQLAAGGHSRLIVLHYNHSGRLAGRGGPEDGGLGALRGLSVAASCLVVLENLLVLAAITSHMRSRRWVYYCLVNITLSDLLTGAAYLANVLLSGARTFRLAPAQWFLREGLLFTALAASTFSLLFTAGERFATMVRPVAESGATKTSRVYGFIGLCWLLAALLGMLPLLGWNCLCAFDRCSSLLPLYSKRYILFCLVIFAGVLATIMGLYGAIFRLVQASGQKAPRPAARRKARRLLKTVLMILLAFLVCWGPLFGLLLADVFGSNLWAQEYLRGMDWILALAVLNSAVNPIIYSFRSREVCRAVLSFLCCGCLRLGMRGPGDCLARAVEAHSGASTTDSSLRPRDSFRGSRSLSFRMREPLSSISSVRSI
Assay: Agonist activity at human S1P4 receptor by beta-arrestin recruitment assay relative to S1P
Conditions: not given
For `O=C(O)CC1CCn2c1cc1cc(OCc3ccc(C4CCCC4)c(C(F)(F)F)c3)ccc12` (stereo in doubt; 12b), the Emax was 49%.
Work on `O=C(O)CC1CCn2c1cc1cc(OCc3ccc(C4CCCC4)c(C(F)(F)F)c3)ccc12` (stereo in doubt; 12a) yielded an Emax of 47%.

Target: Sphingosine 1-phosphate receptor 5 (Homo sapiens, UniProt Q9H228)
Sequence (Q9H228 whole entry): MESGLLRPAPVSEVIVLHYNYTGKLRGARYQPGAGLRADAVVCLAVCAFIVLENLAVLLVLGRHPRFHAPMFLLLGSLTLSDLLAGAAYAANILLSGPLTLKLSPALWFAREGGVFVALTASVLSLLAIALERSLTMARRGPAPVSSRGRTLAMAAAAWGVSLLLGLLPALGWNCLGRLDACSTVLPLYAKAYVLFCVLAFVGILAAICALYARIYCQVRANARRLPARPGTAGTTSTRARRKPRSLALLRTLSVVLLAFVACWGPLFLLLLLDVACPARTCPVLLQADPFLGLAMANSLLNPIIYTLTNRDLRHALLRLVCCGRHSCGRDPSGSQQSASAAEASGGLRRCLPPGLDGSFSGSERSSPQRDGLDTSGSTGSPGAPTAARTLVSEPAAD
Assay: Agonist activity at human S1P5 receptor by beta-arrestin recruitment assay relative to S1P
Conditions: not given
Molecule `O=C(O)CC1CCn2c1cc1cc(OCc3ccc(C4CCCC4)c(C(F)(F)F)c3)ccc12` (stereo in doubt; 12b) has an Emax of 59%.
In the case of `O=C(O)CC1CCn2c1cc1cc(OCc3ccc(C4CCCC4)c(C(F)(F)F)c3)ccc12` (stereo in doubt; 12a), the Emax is reported as 83%.
For `CC(C)Oc1ccc(COc2ccc3c(c2)cc2n3CCC2CC(=O)O)cc1C#N` (stereo in doubt; 19b), the Emax was 133%.

Tested on: not listed separately
Assay: Activation of Inward rectifier potassium channel in human atrial myocytes
Assay type: cell-based
Conditions: Cardiac atrium
Molecule `CCCCCCCCCCCCC/C=C/[C@@H](O)[C@@H](N)COP(=O)(O)O` has an EC50 of 2.1 nM.
